Results published in US12583818B2 (DAEGU-GYEONGBUK MEDICAL INNOVATION FOUNDATION, priority 2020, dated 2026).
Read-outs that look alike come from different tables or passages of the source.

Columns and labels:
Pin1 = biological target: T1, Pin1 (Homo sapiens, UniProt Q13526); experiment: Evaluation of Pin1 enzyme inhibitory activity (Sensolyte Green Pin1 assay kit); format: biochemical
T1 construct: purchased Anaspec
Outline: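 Pin1 activity was measured with a fluorogenic kit assay (Sensolyte Green) using substrate prepared at 1 μM and protein at 50 μg/ml, both pre-mix concentrations. Compound working solutions were 100, 10, 1 or 0.1 μM, and reactions ran 2 h at room temperature in the dark, read at 490/520 nm. Inhibition was graded A–D by concentration.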

[1] = system: MDA-MB 231 triple negative breast cancer cell line; experiment: MDA-MB 231 protein expression inhibition (Western blotting, cycline D1 vs Vinculin); format: cell-based; details: Homo sapiens, compound 10 μM, 72 hours, cycline D1 Western blot, read-out: MBA-MB-231 (amount of the protein compared to the DMSO-treated control group)
Description: In order to confirm the ability of the compound represented by formula 1 according to the present invention to inhibit the protein expression of MDA-MB 231 triple negative breast cancer cell line, the following experiment was performed, and the results are shown in Table 3 below.
MDA-MB-231 cells were cultured in a 5% CO2 incubator at 37° C. using RPMI medium supplemented with 10% FBS and 1% penicillin/streptomycin.
The cells were washed with PBS once a day, and then replaced with a new medium. The cells grown at the density of at least 90% 1 day before the experiment were detached using trypsin/EDTA, and then plated at the density of 100,000 per well in a 6-well plate.
On the next day of culture, the compound prepared in each example was treated at a concentration of 10 μM, and DMSO was treated at a concentration of 0.1% of the total as the control, followed by incubation for 72 hours. After 72 hours, the cells were washed twice with PBS, collected by scraping, and centrifuged at 13,000 rpm for 3 minutes to remove all the supernatant and only cells were taken.
RIPA buffer (containing 1× protease inhibitor and phosphatase inhibitor) was added to the prepared cells (80 μl/well), and the plate was shaken once every 5 minutes to disrupt the cells for a total of 15 minutes. The disrupted cells were centrifuged at 13,000 rpm for 15 minutes to collect only the supernatant protein. The obtained protein was quantified using a BCA protein quantification kit (Pierece, MA, USA), and a total of 10 μg of the protein was used for Western blotting.
The protein sample was isolated by 10% SDS-PAGE, and transferred to a PVDF membrane. Anti-human cycline D1 antibody (Cell signal) and anti-Vinculin antibody were bound to the protein sample, and the expression of the protein was measured by using an ECL reagent and LAS4000 equipment. The measurement results were quantified and generalized using ImageJ. The results are shown in Table 3 below by dividing the grades A to D according to the amount of the protein compared to the DMSO-treated control group.

[2] = system: MCF7 cells (breast cancer cells); experiment: Cell viability of MCF7 cells (Cell-titer Glo); format: cell-based; details: Homo sapiens
Description: (§1) In order to confirm the inhibitory effect of the compound represented by formula 1 according to the present invention on the growth of MCF7, MCF7-SP, A2780 or A2780-SP cells, the following experiment was performed, and the results are shown in Tables 4 and 5 below.
MCF7 cells (breast cancer cells) were plated in a 96-well plate at the density of 3000 viable cells per well, and cultured in DMEM/High glucose medium supplemented with 10% FBS and 1% penicillin/streptomycin.
On the next day of culture, the cells were treated with the compound of Example 71, 76, 80, 84, 92, 99, 100 or 119, followed by culture for 3 days. Cell viability was evaluated by Cell-titer Glo (Promega, WC, USA), and luciferase activity was detected using a Tecan plate reader (Biocompare, USA).

[3] = system: MCF7-SP cells (breast cancer stem cells); experiment: Sphere cell viability of MCF7-SP cells (Cell-titer Glo); format: cell-based
Description: as §1
On the other hand, MCF7-SP cells (breast cancer stem cells) were plated in an Ultra-Low Attachment round bottom 96-well plate (corning) at the density of 1,500 viable cells per well, and cultured in cancer stem cell medium. The cancer stem cell medium is composed of the neurobasal medium supplemented with 20 ng/ml of bFGF, 10 ng/ml of EGF, 2.5 […], HEPES, Glutamax and B27.
On the next day of culture, the cells were treated with the compound of Example 71, 76, 80, 84, 92, 99, 100 or 119, followed by culture for 8 days. The medium containing the compound was added thereto once again on the 4th day. Sphere cell viability was evaluated by Cell-titer Glo (Promega, WC, USA), and luciferase activity was detected using a Tecan plate reader (Biocompare, USA).

[4] = system: A2780 cells (ovarian cancer cells); experiment: Cell viability of A2780 cells (Cell-titer Glo); format: cell-based; details: Homo sapiens
Outline: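 A2780 ovarian cancer cells seeded at 3000 viable cells/well in RPMI-1640 with 10% FBS, dosed the next day and grown 3 days. Viability measured by Cell-titer Glo luminescence.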

[5] = system: A2780-SP cells (ovarian cancer stem cells); experiment: Sphere cell viability of A2780-SP cells (Cell-titer Glo); format: cell-based
Outline: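 A2780-SP ovarian cancer stem cells grown as spheres in ultra-low-attachment wells (1,500 cells/well) in neurobasal stem-cell medium with bFGF, EGF, B27. Compound added the day after plating, re-dosed on day 4, 8-day culture total; viability by CellTiter-Glo luminescence.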

[6] = Table 2, read-out: concentration at which Pin1 inhibitory activity was exhibited
[7] = concentration at which the Pin1 enzyme activity is inhibited, 2 hours at room temperature, fluorescence 490 nm/520 nm, read-out: Pin 1 inhibition
[8] = 72 h, cell viability, culture for 3 days, read-out: MCF7
[9] = MCF7, text summary of Table 4, read-out: MCF7 cell concentration
[10] = 192 h, sphere cell viability, culture for 8 days, read-out: MCF7-SP
[11] = 72 h, cell viability, culture for 3 days, read-out: A2780
[12] = A2780, Table 5, read-out: A2780 cell concentration
[13] = 192 h, sphere cell viability, culture for 8 days, read-out: A2780-SP
[14] = Table 5, read-out: the concentration (second list of b710, cell line not named; matches A2780-SP column)

T1 sequence (Q13526 whole entry): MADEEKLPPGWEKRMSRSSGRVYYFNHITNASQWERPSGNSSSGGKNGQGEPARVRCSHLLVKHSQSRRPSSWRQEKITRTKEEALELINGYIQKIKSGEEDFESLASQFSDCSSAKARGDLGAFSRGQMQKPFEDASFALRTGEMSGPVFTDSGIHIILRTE

O=S(=O)(NCCCc1c[nH]c2ccc(Cl)cc12)c1ccc(OCCCN2CCNCC2)cc1 [Example 70, N-(3-(5-chloro-1H-indol-3-yl)propyl)-4-(3-(piperazin-1-yl)propoxy)benzenesulfonamide]
IC50 (Pin1; [6]): < 1 µM
IC50 (Pin1; [7]): < 1 µM
activity at 10 µM [1]: 0 to 35%
IC50 [2, 8]: 1 to 10 µM
IC50 [2, 9]: < 10 µM
IC50 [3, 10]: 1 to 10 µM
IC50 ([3]; text summary of Table 4, read-out: MCF7-SP cell concentration): < 10 µM
IC50 [4, 11]: 1 to 10 µM
IC50 [4, 12]: < 10 µM
IC50 [5, 13]: < 1 µM
IC50 [5, 14]: < 1 µM

O=S(=O)(NCCCc1c[nH]c2ccc(Cl)cc12)c1ccc(OCCCN2CCC(O)CC2)cc1 [Example 75, N-(3-(5-chloro-1H-indol-3-yl)propyl)-4-(3-(4-hydroxypiperidin-1-yl)propoxy)benzenesulfonamide]
IC50 (Pin1; [6]): < 1 µM
IC50 (Pin1; [7]): < 1 µM
activity at 10 µM [1]: 0 to 35%
IC50 [2, 8]: 1 to 10 µM
IC50 [2, 9]: < 10 µM
IC50 [3, 10]: > 10 µM
IC50 [4, 11]: 1 to 10 µM
IC50 [4, 12]: < 10 µM
IC50 [5, 13]: 1 to 10 µM

O=S(=O)(NCCCc1c[nH]c2ccc(Cl)cc12)c1ccc(OCCCN2CCNCC2)nc1 [Example 79, N-(3-(5-chloro-1H-indole-3-yl)propyl)-6-(3-(piperazine-1-yl)propoxy)pyridine-3-sulfonamide]
IC50 (Pin1; [6]): < 1 µM
IC50 (Pin1; [7]): < 1 µM
activity at 10 µM [1]: 0 to 35%
IC50 [2, 8]: > 10 µM
IC50 [3, 10]: > 10 µM
IC50 [4, 11]: > 10 µM
IC50 [5, 13]: < 1 µM
IC50 [5, 14]: < 1 µM

O=S(=O)(NCCCc1c[nH]c2ccc(Cl)cc12)c1ccc(CCCCN2CCCCC2)cc1 [Example 90, N-(3-(5-chloro-1H-indole-3-yl)propyl)-4-(4-(piperidine-1-yl)butyl)benzenesulfonamide]
IC50 (Pin1; [6]): < 1 µM
IC50 (Pin1; [7]): < 1 µM
activity at 10 µM [1]: 35 to 50%
IC50 [4, 11]: > 10 µM
IC50 [5, 13]: < 1 µM
IC50 [5, 14]: < 1 µM

CN1CCC(CCCOc2ccc(S(=O)(=O)NCCCc3c[nH]c4ccc(Cl)cc34)cc2)CC1 [Example 92, N-(3-(5-chloro-1H-indole-3-yl)propyl)-4-(3-(1-methylpiperidine-4-yl)propoxy)benzenesulfonamide]
IC50 (Pin1; [6]): < 1 µM
IC50 (Pin1; [7]): < 1 µM
activity at 10 µM [1]: 0 to 35%
IC50 [4, 11]: > 10 µM
IC50 [5, 13]: < 1 µM
IC50 [5, 14]: < 1 µM

O=S(=O)(NCCCc1c[nH]c2ccc(Cl)cc12)c1ccc(OCCCC2CCNCC2)cc1 [Example 93, N-(3-(5-chloro-1H-indole-3-yl)propyl)-4-(3-(piperidine-4-yl)propoxy)benzenesulfonamide]
IC50 (Pin1; [6]): < 1 µM
IC50 (Pin1; [7]): < 1 µM
activity at 10 µM [1]: 0 to 35%
IC50 [4, 11]: 1 to 10 µM
IC50 [4, 12]: < 10 µM
IC50 [5, 13]: < 1 µM
IC50 [5, 14]: < 1 µM

CN1CCN(CCCOc2ccc(S(=O)(=O)NCCCc3c[nH]c4ccc(Cl)cc34)cc2F)CC1 [Example 103, N-(3-(5-chloro-1H-indole-3-yl)propyl)-3-fluoro-4-(3-(4-methylpiperazine-1-yl)propoxy)benzenesulfonamide]
IC50 (Pin1; [6]): < 1 µM
IC50 (Pin1; [7]): < 1 µM
activity at 10 µM [1]: 35 to 50%
IC50 [4, 11]: > 10 µM
IC50 [5, 13]: < 1 µM
IC50 [5, 14]: < 1 µM

O=S(=O)(NCCCc1c[nH]c2ccc(Cl)cc12)c1ccc(OCCCN2CCNCC2)c(F)c1 [Example 104, N-(3-(5-chloro-1H-indol-3-yl)propyl)-3-fluoro-4-(3-(piperazin-1-yl)propoxy)benzenesulfonamide]
IC50 (Pin1; [6]): < 1 µM
IC50 (Pin1; [7]): < 1 µM
activity at 10 µM [1]: 70 to 100%
IC50 [4, 11]: > 10 µM
IC50 [5, 13]: < 1 µM
IC50 [5, 14]: < 1 µM

O=S(=O)(NCCCc1c[nH]c2ccc(Cl)cc12)c1ccc(OCCCN2CCC(O)CC2)c(F)c1 [Example 105, N-(3-(5-chloro-1H-indol-3-yl)propyl)-3-fluoro-4-(3-(4-hydroxypiperidin-1-yl)propoxy)benzenesulfonamide]
IC50 (Pin1; [6]): < 1 µM
IC50 (Pin1; [7]): < 1 µM
activity at 10 µM [1]: 70 to 100%
IC50 [4, 11]: > 10 µM
IC50 [5, 13]: < 1 µM
IC50 [5, 14]: < 1 µM

O=S(=O)(NCCCc1c[nH]c2ccc(Cl)cc12)c1ccc(OCCCN2CCCNCC2)c(F)c1 [Example 106, 4-(3-(1,4-diazepan-1-yl)propoxy)-N-(3-(5-chloro-1H-indol-3-yl)propyl)-3-fluorobenzenesulfonamide]
IC50 (Pin1; [6]): < 1 µM
IC50 (Pin1; [7]): < 1 µM
activity at 10 µM [1]: 50 to 70%
IC50 [4, 11]: 1 to 10 µM
IC50 [4, 12]: < 10 µM
IC50 [5, 13]: < 1 µM
IC50 [5, 14]: < 1 µM

O=S(=O)(NCCCc1c[nH]c2ccc(Cl)cc12)c1ccc(Oc2cccc(N3CCNCC3)c2)cc1 [Example 121, N-(3-(5-chloro-1H-indol-3-yl)propyl)-4-(3-(piperazin-1-yl)phenoxy)benzenesulfonamide]
IC50 (Pin1; [6]): < 1 µM
IC50 (Pin1; [7]): < 1 µM
activity at 10 µM [1]: 0 to 35%
IC50 [4, 11]: 1 to 10 µM
IC50 [4, 12]: < 10 µM
IC50 [5, 13]: < 1 µM
IC50 [5, 14]: < 1 µM

CN1CCN(c2cccc(Nc3ccc(S(=O)(=O)NCCCc4c[nH]c5ccc(Cl)cc45)cc3)c2)CC1 [Example 123, N-(3-(5-chloro-1H-indole-3-yl)propyl)-4-((3-(4-methylpiperazine-1-yl)phenyl)amino)benzenesulfonamide]
IC50 (Pin1; [6]): < 1 µM
IC50 (Pin1; [7]): < 1 µM
activity at 10 µM [1]: 70 to 100%
IC50 [4, 11]: 1 to 10 µM
IC50 [4, 12]: < 10 µM
IC50 [5, 13]: 1 to 10 µM
